Data as given in ChEMBL document CHEMBL1201862, “PubChem BioAssay data set” (2004).
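96-well plates; 48 h exposure; 5 concentrations. Endpoints by linear interpolation between flanking doses. Not reached: highest tested concentration assigned. GI50 is the concentration that inhibits growth by half.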 Activity calls are given as the source filed them. Cut-off read from the data, not from the text of the source: active = GI50 up to about 1.1 µM and inactive = higher.

How the values were obtained:
Assay in all cases: growth of human tumour cells (NCI), 48 h
786-0 = tested on: 786-0
ACHN = tested on: ACHN
CAKI-1 = tested on: CAKI-1
CCRF-CEM = tested on: CCRF-CEM
DU-145 = tested on: DU-145
EKVX = tested on: EKVX
HCC 2998 = tested on: HCC 2998
HCT-116 = tested on: HCT-116
HCT-15 = tested on: HCT-15
HL-60 = tested on: HL-60
HOP-62 = tested on: HOP-62
HT-29 = tested on: HT-29
IGROV-1 = tested on: IGROV-1
K562 = tested on: K562
KM12 = tested on: KM12
LOX IMVI = tested on: LOX IMVI
M14 = tested on: M14
MCF7 = tested on: MCF7
MDA-MB-231 = tested on: MDA-MB-231
MDA-MB-435 = tested on: MDA-MB-435
MDA-N = tested on: MDA-N
MOLT-4 = tested on: MOLT-4
Malme-3M = tested on: Malme-3M
NCI-H226 = tested on: NCI-H226
NCI-H23 = tested on: NCI-H23
NCI-H460 = tested on: NCI-H460
NCI-H522 = tested on: NCI-H522
NCI/ADR-RES = tested on: NCI/ADR-RES
OVCAR-3 = tested on: OVCAR-3
OVCAR-4 = tested on: OVCAR-4
OVCAR-5 = tested on: OVCAR-5
OVCAR-8 = tested on: OVCAR-8
PC-3 = tested on: PC-3
RPMI-8226 = tested on: RPMI-8226
SF-268 = tested on: SF-268
SF-539 = tested on: SF-539
SK-MEL-28 = tested on: SK-MEL-28
SK-MEL-2 = tested on: SK-MEL-2
SK-MEL-5 = tested on: SK-MEL-5
SK-OV-3 = tested on: SK-OV-3
SN12C = tested on: SN12C
SNB-19 = tested on: SNB-19
SNB-75 = tested on: SNB-75
SR = tested on: SR
SW-620 = tested on: SW-620
T47D = tested on: T47D
TK-10 = tested on: TK-10
U-251 = tested on: U-251
UACC-257 = tested on: UACC-257
UACC-62 = tested on: UACC-62
UO-31 = tested on: UO-31
A498 = tested on: A498
A549 = tested on: A549
COLO 205 = tested on: COLO 205
HOP-92 = tested on: HOP-92
Hs-578T = tested on: Hs-578T
RXF 393 = tested on: RXF 393
SF-295 = tested on: SF-295

COc1ccc2cc(C(=O)Nc3ccc(O)c(C(=O)O)c3)ccc2c1OC
GI50 (786-0): > 100 µM (inactive) | GI50 (ACHN): > 100 µM (inactive) | GI50 (CAKI-1): > 100 µM (inactive) | GI50 (CCRF-CEM): > 100 µM (inactive) | GI50 (DU-145): > 100 µM (inactive) | GI50 (EKVX): > 100 µM (inactive) | GI50 (HCC 2998): > 100 µM (inactive) | GI50 (HCT-116): > 100 µM (inactive) | GI50 (HCT-15): > 100 µM | GI50 (HL-60): > 100 µM (inactive) | GI50 (HOP-62): > 100 µM (inactive) | GI50 (HT-29): > 100 µM (inactive) | GI50 (IGROV-1): > 100 µM (inactive) | GI50 (K562): > 100 µM (inactive) | GI50 (KM12): > 100 µM (inactive) | GI50 (LOX IMVI): > 100 µM (inactive) | GI50 (M14): > 100 µM (inactive) | GI50 (MCF7): > 100 µM (inactive) | GI50 (MDA-MB-231): > 100 µM (inactive) | GI50 (MDA-MB-435): > 100 µM (inactive) | GI50 (MDA-N): > 100 µM (inactive) | GI50 (MOLT-4): > 100 µM (inactive) | GI50 (Malme-3M): > 100 µM (inactive) | GI50 (NCI-H226): > 100 µM (inactive) | GI50 (NCI-H23): > 100 µM (inactive) | GI50 (NCI-H460): > 100 µM (inactive) | GI50 (NCI-H522): 49.4 µM (inactive) | GI50 (NCI/ADR-RES): > 100 µM (inactive) | GI50 (OVCAR-3): > 100 µM (inactive) | GI50 (OVCAR-4): 72.6 µM (inactive) | GI50 (OVCAR-5): > 100 µM (inactive) | GI50 (OVCAR-8): > 100 µM (inactive) | GI50 (PC-3): > 100 µM (inactive) | GI50 (RPMI-8226): > 100 µM (inactive) | GI50 (SF-268): > 100 µM (inactive) | GI50 (SF-539): > 100 µM (inactive) | GI50 (SK-MEL-28): > 100 µM (inactive) | GI50 (SK-MEL-2): > 100 µM (inactive) | GI50 (SK-MEL-5): > 100 µM (inactive) | GI50 (SK-OV-3): > 100 µM (inactive) | GI50 (SN12C): > 100 µM (inactive) | GI50 (SNB-19): > 100 µM (inactive) | GI50 (SNB-75): > 100 µM (inactive) | GI50 (SR): > 100 µM (inactive) | GI50 (SW-620): > 100 µM (inactive) | GI50 (T47D): > 100 µM (inactive) | GI50 (TK-10): > 100 µM (inactive) | GI50 (U-251): > 100 µM (inactive) | GI50 (UACC-257): > 100 µM (inactive) | GI50 (UACC-62): > 100 µM (inactive) | GI50 (UO-31): > 100 µM (inactive)

CC1(C)C=C(/C=N/Nc2ccccc2)C(C#N)=C(O)C1(C#N)C#N
GI50 (786-0): > 100 µM (inactive) | GI50 (A498): 48.6 µM (inactive) | GI50 (A549): > 100 µM (inactive) | GI50 (ACHN): > 100 µM (inactive) | GI50 (CAKI-1): > 100 µM (inactive) | GI50 (CCRF-CEM): 68.4 µM (inactive) | GI50 (COLO 205): 74.1 µM (inactive) | GI50 (DU-145): > 100 µM (inactive) | GI50 (EKVX): > 100 µM (inactive) | GI50 (HCC 2998): > 100 µM (inactive) | GI50 (HCT-116): > 100 µM (inactive) | GI50 (HL-60): 41.9 µM (inactive) | GI50 (HOP-62): > 100 µM (inactive) | GI50 (HOP-92): 28.5 µM (inactive) | GI50 (HT-29): 93.8 µM (inactive) | GI50 (Hs-578T): > 100 µM (inactive) | GI50 (IGROV-1): > 100 µM (inactive) | GI50 (K562): 56.5 µM (inactive) | GI50 (KM12): > 100 µM (inactive) | GI50 (LOX IMVI): > 100 µM (inactive) | GI50 (M14): > 100 µM (inactive) | GI50 (MCF7): > 100 µM (inactive) | GI50 (MDA-MB-231): > 100 µM (inactive) | GI50 (MDA-MB-435): > 100 µM (inactive) | GI50 (MDA-N): > 100 µM (inactive) | GI50 (MOLT-4): 57.7 µM (inactive) | GI50 (Malme-3M): > 100 µM (inactive) | GI50 (NCI-H226): > 100 µM (inactive) | GI50 (NCI-H23): > 100 µM (inactive) | GI50 (NCI-H460): 92.7 µM (inactive) | GI50 (NCI-H522): > 100 µM (inactive) | GI50 (NCI/ADR-RES): > 100 µM (inactive) | GI50 (OVCAR-3): > 100 µM (inactive) | GI50 (OVCAR-4): > 100 µM (inactive) | GI50 (OVCAR-5): > 100 µM (inactive) | GI50 (OVCAR-8): > 100 µM (inactive) | GI50 (PC-3): 36.7 µM (inactive) | GI50 (RPMI-8226): 52.5 µM (inactive) | GI50 (RXF 393): > 100 µM (inactive) | GI50 (SF-268): > 100 µM (inactive) | GI50 (SF-295): 90.4 µM (inactive) | GI50 (SF-539): > 100 µM (inactive) | GI50 (SK-MEL-28): > 100 µM (inactive) | GI50 (SK-MEL-5): > 100 µM (inactive) | GI50 (SK-OV-3): > 100 µM (inactive) | GI50 (SN12C): > 100 µM (inactive) | GI50 (SNB-19): > 100 µM (inactive) | GI50 (SNB-75): > 100 µM (inactive) | GI50 (SR): 31.3 µM (inactive) | GI50 (SW-620): > 100 µM (inactive) | GI50 (TK-10): > 100 µM (inactive) | GI50 (UACC-257): > 100 µM (inactive) | GI50 (UACC-62): > 100 µM (inactive) | GI50 (UO-31): > 100 µM (inactive)
